Assay results from US20160193206A1, “BET-PROTEIN-INHIBITING DIHYDROPYRIDOPYRAZINONES” (BAYER PHARMA AKTIENGESELLSCHAFT, priority 2012, published 2016).

Tests used:
[1] = molecular target: T1, BRD4 bromo domain 1 [BRD4(1)] (Homo sapiens, UniProt O60885); assay: BRD4(1)/acetylated peptide H4 binding assay (TR-FRET); conditions: inhibition of interaction between His6-tagged BRD4(1) (amino acids 67-152) and acetylated histone H4 peptide
T1 construct: N-terminally His6-tagged BRD4(1) (amino acids 67-152); made in house; host or cells: E. coli
Procedure, shortened: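 IC50 came from a 4-parameter fit of the 665/620 nm emission ratio, normalised to DMSO and no-protein controls. His6-tagged BRD4(1) residues 67-152 (typically 10 nM final) was preincubated 10 min with compound (0.1 nM to 20 μM, duplicates), then exposed to Ac-H4-biotin peptide at 22 °C for 1 h and 4 °C for at least 3 h.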

[2] = molecular target: T2, BRD4 bromo domain 2 [BRD4(2)] (Homo sapiens, UniProt O60885); assay: BRD4(2)/acetylated peptide H4 binding assay (TR-FRET); conditions: inhibition of interaction between His6-tagged BRD4(2) (amino acids 357-445) and acetylated histone H4 peptide
T2 construct: N-terminally His6-tagged BRD4(2) (amino acids 357-445); made in house; host or cells: E. coli
Procedure, shortened: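 Compounds (0.1 nM to 20 μM, 11 points, duplicates) preincubated 10 min at 22 °C with 100 nM His6-tagged BRD4(2) residues 357-445, then Ac-H4-biotin peptide added; incubated 1 h at 22 °C and 3 h-overnight at 4 °C. Eu/XL665 emission ratio normalised to DMSO and no-protein controls; 4-parameter IC50.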

MOLM-13 cell line = assay: MOLM-13 cell proliferation assay (alamarBlue); assay type: cell-based; conditions: Homo sapiens, inhibition of proliferation of MOLM-13 cells (acute myeloid leukaemia), 96 hours incubation
Procedure: In accordance with the invention, the substances were tested for their ability to inhibit the proliferation of the MOLM-13 cell linie (Deutsche Sammlung für Mikroorganismen und Zellkulturen [German Collection of Microorganisms and Cell Cultures], ACC 554; acute myeloid leukaemia). Cell viability was determined by means of the alamarBlue® reagent (Invitrogen) in a Victor X3 Multilabel Reader (Perkin Elmer). The excitation wavelength was 530 nm and the emission wavelength […].
The MOLM-13 cells were sown at a density of 4000 cells/well in 100 μl of growth medium on 96-well microtitre plates. After overnight incubation at 37° C., the fluorescence values were determined (CI values). The plates were then treated with various substance dilutions and incubated at 37° C. for 96 hours. Subsequently, the fluorescence values were determined (CO values). For the data analysis, the CI values were subtracted from the CO values and the results were compared between cells which had been treated with various dilutions of the substance or only with buffer solution. The IC50 values (substance concentration needed for 50% inhibition of cell proliferation) were calculated therefrom.

IC50 [1] [nM]	IC50 [2] [nM]	IC50 (MOLM-13 cell line) [nM]	SMILES
260	138	176	COc1cc(C(=O)NC2CCN(C)CC2)ccc1Nc1ccc2c(n1)N(C1CCCC1)[C@H](C)C(=O)N2C [Example 1, 4-{[(3R)-4-Cyclopentyl-1,3-dimethyl-2-oxo-1,2,3,4-tetrahydropyrido[2,3-b]pyrazin-6-yl]amino}-3-methoxy-N-(1-methylpiperidin-4-yl)benzamide]
501	622	2360	COc1cc(C(=O)NC2CCN(C)CC2)ccc1Nc1ccc2c(n1)N(C(C)C)[C@H](C)C(=O)N2C [Example 2, 4-{[(3R)-1,3-Dimethyl-2-oxo-4-(propan-2-yl)-1,2,3,4-tetrahydropyrido[2,3-b]pyrazin-6-yl]amino}-3-methoxy-N-(1-methylpiperidin-4-yl)benzamide]
131	472	630	COc1cc(C(=O)NCCN2CCOCC2)ccc1Nc1ccc2c(n1)N(C(C)C)[C@H](C)C(=O)N2C [Example 3, 4-{[(3R)-1,3-Dimethyl-2-oxo-4-(propan-2-yl)-1,2,3,4-tetrahydropyrido[2,3-b]pyrazin-6-yl]amino}-3-methoxy-N-[2-(morpholin-4-yl)ethyl]benzamide]
374	234	1110	COc1cc(C(=O)NCCN2CCN(C(=O)OC(C)(C)C)CC2)ccc1Nc1ccc2c(n1)N(C(C)C)[C@H](C)C(=O)N2C [Example 4, 1-tert-Butyl 4-{2-[(4-{[(3R)-1,3-dimethyl-2-oxo-4-(propan-2-yl)-1,2,3,4-tetrahydropyrido[2,3-b]pyrazin-6-yl]amino}-3-methoxybenzoyl)amino]ethyl}piperazinecarboxylate]
93	–	503	COc1cc(C(=O)NCCN(C)C)ccc1Nc1ccc2c(n1)N(C(C)C)[C@H](C)C(=O)N2C [Example 5, N-[2-(Dimethylamino)ethyl]-4-{[(3R)-1,3-dimethyl-2-oxo-4-(propan-2-yl)-1,2,3,4-tetrahydropyrido[2,3-b]pyrazin-6-yl]amino}-3-methoxybenzamide]
255	–	762	COc1cc(C(=O)NC2CCCC2)ccc1Nc1ccc2c(n1)N(C(C)C)[C@H](C)C(=O)N2C [Example 6, N-Cyclopentyl-4-{[(3R)-1,3-dimethyl-2-oxo-4-(propan-2-yl)-1,2,3,4-tetrahydropyrido[2,3-b]pyrazin-6-yl]amino}-3-methoxybenzamide]
91	–	377	C[C@@H]1C(=O)N(C)c2ccc(Nc3ccc(C(=O)N4CC5(CCS5(=O)=O)C4)cc3)nc2N1C1CCCC1 [Example 7, (3R)-4-Cyclopentyl-6-({4-[(1,1-dioxido-1-thia-6-azaspiro[3.3]hept-6-yl)carbonyl]phenyl}amino)-1,3-dimethyl-3,4-dihydropyrido[2,3-b]pyrazin-2(1H)-one]
141	83	362	COc1cc(C(=O)N2CC3(CCS3(=O)=O)C2)ccc1Nc1ccc2c(n1)N(C(C)C)[C@H](C)C(=O)N2C [Example 8, (3R)-6-({4-[(1,1-Dioxido-1-thia-6-azaspiro[3.3]hept-6-yl)carbonyl]-2-methoxyphenyl}amino)-4-isopropyl-1,3-dimethyl-3,4-dihydropyrido[2,3-b]pyrazin-2(1H)-one]
52	–	461	COc1cc(C(=O)NCCN(C)C)ccc1Nc1ccc2c(n1)N(C1CCOCC1)[C@H](C)C(=O)N2C [Example 46, N-[2-(Dimethyalmino)ethyl]-4-{[(3R)-1,3-dimethyl-2-oxo-4-(tetrahydro-2H-pyran-4-yl)-1,2,3,4-tetrahydropyrido[2,3-b]pyrazin-6-yl]amino}-3-methoxybenzamide]
438	344	–	CC(C)N1c2nc(Nc3ccc(C(=O)N[C@H]4CC[C@H](N5CCN(CC6CC6)CC5)CC4)cc3)ccc2N(C)C(=O)[C@H]1C [Example 96, N-{trans-4-[4-(Cyclopropylmethyl)piperazin-1-yl]cyclohexyl}-4-{[(3R)-1,3-dimethyl-2-oxo-4-(propan-2-yl)-1,2,3,4-tetrahydropyrido[2,3-b]pyrazin-6-yl]amino}benzamide]
261	117	–	COc1cc(C(=O)NC2CCC(O)CC2)ccc1Nc1ccc2c(n1)N(C(C)C)[C@H](C)C(=O)N2C (stereo partly drawn) [Example 97, 4-{[(3R)-1,3-Dimethyl-2-oxo-4-(propan-2-yl)-1,2,3,4-tetrahydropyrido[2,3-b]pyrazin-6-yl]amino}-N-(4-hydroxycyclohexyl)-3-methoxybenzamide]
281	98	–	CC(C)N1c2nc(Nc3ccc(C(=O)NC4CCN(C)CC4)cc3)ccc2N(C)C(=O)[C@H]1C [Example 98, 4-{[(3R)-1,3-Dimethyl-2-oxo-4-(propan-2-yl)-1,2,3,4-tetrahydropyrido[2,3-b]pyrazin-6-yl]amino}-N-(1-methylpiperidin-4-yl)benzamide]
621	217	–	COCCN1c2nc(Nc3ccc(C(=O)NC4CCN(C)CC4)cc3)ccc2N(C)C(=O)C1C (stereo not drawn) [Example 104, 4-{[4-(2-Methoxyethyl)-1,3-dimethyl-2-oxo-1,2,3,4-tetrahydropyrido[2,3-b]pyrazin-6-yl]amino}-N-(1-methylpiperidin-4-yl)benzamide]
452	187	–	COCCN1c2nc(Nc3ccc(C(=O)N[C@H]4CC[C@H](N5CCN(CC6CC6)CC5)CC4)cc3)ccc2N(C)C(=O)C1C (stereo partly drawn) [Example 105, N-{trans-4-[4-(Cyclopropylmethyl)piperazin-1-yl]cyclohexyl}-4-{[4-(2-methoxyethyl)-1,3-dimethyl-2-oxo-1,2,3,4-tetrahydropyrido[2,3-b]pyrazin-6-yl]amino}benzamide]
632	463	–	C[C@@H]1C(=O)N(C)c2ccc(Nc3ccc(S(=O)(=O)N(C)C)cc3)nc2N1C1CCN(C(=O)OC(C)(C)C)CC1 [Example 106, tert-Butyl 4-[(3R)-6-{[4-(dimethylsulphamoyl)phenyl]amino}-1,3-dimethyl-2-oxo-2,3-dihydropyrido[2,3-b]pyrazin-4(1H)-yl]piperidine-1-carbonate]
63	239	–	C[C@@H]1C(=O)N(C)c2ccc(Nc3ccc(S(=O)(=O)NC4CCN(C)CC4)cc3)nc2N1c1ccccc1 [Example 108, 4-{[(3R)-1,3-Dimethyl-2-oxo-4-phenyl-1,2,3,4-tetrahydropyrido[2,3-b]pyrazin-6-yl]amino}-N-(1-methylpiperidin-4-yl)benzenesulphonamide]
36	78	–	C[C@@H]1C(=O)N(C)c2ccc(Nc3ccc(S(=O)(=O)N[C@H]4CC[C@H](N5CCN(CC6CC6)CC5)CC4)cc3)nc2N1Cc1ccccc1 [Example 109, 4-{[(3R)-4-Benzyl-1,3-dimethyl-2-oxo-1,2,3,4-tetrahydropyrido[2,3-b]pyrazin-6-yl]amino}-N-{trans-4-[4-(cyclopropylmethyl)piperazin-1-yl]cyclohexyl}benzenesulphonamide]
38	55	–	COc1cc(S(=O)(=O)NC2CCN(C)CC2)ccc1Nc1ccc2c(n1)N(C1CCOCC1)[C@H](C)C(=O)N2C [Example 110, 4-{[(3R)-1,3-Dimethyl-2-oxo-4-(tetrahydro-2H-pyran-4-yl)-1,2,3,4-tetrahydropyrido[2,3-b]pyrazin-6-yl]amino}-3-methoxy-N-(1-methylpiperidin-4-yl)benzenesulphonamide]
29	130	–	COc1cc(S(=O)(=O)N[C@H]2CC[C@H](N3CCN(CC4CC4)CC3)CC2)ccc1Nc1ccc2c(n1)N(C1CCOCC1)[C@H](C)C(=O)N2C [Example 111, N-{trans-4-[4-(Cyclopropylmethyl)piperazin-1-yl]cyclohexyl}-4-{[(3R)-1,3-dimethyl-2-oxo-4-(tetrahydro-2H-pyran-4-yl)-1,2,3,4-tetrahydropyrido[2,3-b]pyrazin-6-yl]amino}-3-methoxybenzenesulphonamide]
106	86	–	COc1cc(S(=O)(=O)N2CCN(C)CC2)ccc1Nc1ccc2c(n1)N(C1CCOCC1)[C@H](C)C(=O)N2C [Example 112, (3R)-6-({2-Methoxy-4-[(4-methylpiperazin-1-yl)sulphonyl]phenyl}amino)-1,3-dimethyl-4-(tetrahydro-2H-pyran-4-yl)-3,4-dihydropyrido[2,3-b]pyrazin-2(1H)-one]
